Results as given in patent US7879853B2, “4,6-disubstituted pyrimidines and their use as protein kinase inhibitors” (Bayer Schering Pharma AG, priority 2004, dated 2011).

Tests used:
[1] = target: T1, Akt1 (full-length Akt1, active) (Homo sapiens, UniProt P31749); assay: Biochemical Akt1 (active) assay (full-length Akt1), flashplate, Crosstide; conditions: Crosstide substrate, 100 nM ATP, 60 minutes at 30° C.; read-out: Akt1 inhibition (full-length Akt1, active): IC50
T1 construct: recombinant full-length human Akt1, containing N-terminal His6 tag; His6 (N); GST (alternative statement of the assay paragraph) (N); purchased Upstate, UK #14-276; host or cells: baculovirus infected Sf21 insect cells
From the text: For the biochemical Akt1 assay recombinant full-length human Akt1, containing N-terminal His6 tag was cloned and expressed in baculovirus infected Sf21 insect cells. Akt1 is activated with GST-MAPKAP-K2 and PDK1, and repurified on Ni2+/NTA-agrose and glutathioneagarose (Upstate, UK; #14-276).
In order to study the inhibition of Akt1 (full-length version) according to the invention, a flashplate-based assay has been developed.
The full-length Akt1 assay is a biochemical assay using Akt1 N-terminally fused to GST and co-expressed with PDK1 in insect cells. The Akt1 assay is run in 96 well plates by incubating 500 ng/well GST-Akt1, 1 μM Crosstide (N-terminally biotinylated synthetic peptide (KGSGSGRPRTSSFAEG) Upstate, #12-385) as substrate, 10 μl of test compound (test compounds were dissolved as 10 mM solutions in dimethylsulfoxide (DMSO) and subsequently diluted) and 100 nM ATP (including ^33P-ATP) in 100 μl of reaction buffer (50 mM HEPES, pH7.5; 3 mM MgCl2; 3 mM MnCl2; 3 μM Na-Orthovanadat; 1 mM DTT; 1 μg/ml PEG8000) for 60 minutes at 30° C. in 96 well microtiter plates. The reactions are terminated by adding 100 μl stopping buffer (5M NaCl, 35 mM EDTA pH 8,0) for 5 minutes. 190 μl of the reaction mixture are transferred into streptavidin-coated Flashplates (Perkin Elmer, #SMP-103) and incubated for further 30 minutes at room temperature. The plates are washed 3 times by using washing buffer (0.9% NaCl). Relying on the incorporation of ^33P into the peptide substrate crosstide, the detection is based on the specific binding of the biotinylated peptide to the streptavidin-coated surface of scintillator-coated flash plates (NEN, USA; #SMP-103). This phosphorylation is measured by counting the plate for 60 sec. using a plate reader (Wallac Microbeta; Perkin Elmer, USA). The analysis of the data is performed using a biostatistical program (GraphPad Prism, USA).

[2] = target: T2, Akt1 (full-length Akt1, inactive) (Homo sapiens, UniProt P31749); assay: Biochemical Akt1 (inactive) assay (full-length Akt1), IMAP, PDK1-dependent activation; conditions: activation by PDK1 with PIP3 vesicles, 50 μM ATP, 60 min. at room temperature; read-out: Inhibition of Akt1 activation (full-length Akt1, inactive): IC50
T2 construct: recombinant full-length human Akt1 a containing N-terminal His6 tag; His6 (N); purchased Upstate, UK #14-279; host or cells: baculovirus infected Sf21 insect cells
Protocol: The enzyme is purified using Ni2+/NTA-agarose (Upstate, UK; #14-279).
The enzyme is purified using Ni2+/NTA-agarose.
PDK1-dependent activation and subsequent enzymatic activity of Akt1: Activity of purified human Akt1 is routinely measured in an assay in which the enzyme is first activated by PDK1 in the presence of phosphatidylinositol-3,4,5-triphosphate (PIP3). Once activated, Akt1-dependent phosphorylation of a fluorescence labelled peptide substrate is measured by fluorescence polarisation using the IMAP technology (Molecular Devices).
The phospholipids are prepared as follows: 5 mg DOPC/DOPS are solved in 200 μl 10 mM Tris (pH 7.4) and 300 μg PIP3 are resuspended in 950 μl 10 mM Tris (pH 7.4) by pipetting. 950 μl solved PIP3 are mixed with 50 μl solved DOPC/DOPS and incubated for 2 h at a temperature below 20° C. Then the mixture is subjected to sonification for 30 min. at max. power until a translucent phopholipid vesicle preparation is obtained. Aliquots of the vesicle suspension are frozen at −80° C. until needed, likewise the solved DOPC/DOPS.
Assays are performed in 384-well plates. Incubations are carried out for 60 min. at room temperature. The reaction buffer mixture contains in a final volume of 25 μl: 10 mM Tris pH 7.4, 10 mM MgCl2. 1 mM DTT, and 0,1 mg/ml BSA. In contrast the activation buffer contains: 50 ng/well Akt1, 20 ng/well PDK1, 1.25 μM peptide substrat, 50 μM ATP, and phospholipid vesicles (1:20). Test compounds are added from stock solutions in DMSO before activation of Akt1 by PDK1. After the incubation the beads (IMAP binding reagent; Molecular Devices; 1:167) are added and the fluorescence polarization is measured (excitation 485 nm, emission 530 nm). The analysis of the data is performed using a biostatistical program.

MCF7 cells = assay: Cellular proliferation/cytotoxicity assay (Alamar Blue), MCF7; assay type: cell-based; conditions: Homo sapiens; MCF7, 48 hours, Alamar Blue (Resazurin); read-out: Anti-proliferative/cytotoxic activity: IC50 MCF7
Protocol: (§1) The anti-proliferative activity of the compounds as described herein, is evaluated using MCF7 and MDA-MB-468 (ATCC HTB-22 and HTB-132) cell lines and the Alamar Blue (Resazurin) cell viability assay (O'Brien et al. Eur J Biochem 267, 5421-5426, 2000). Resazurin is reduced to the fluorescent rescrufin by cellular dehydrogenase activity, correlating with viable, proliferating cells. Test compounds are dissolved as 10 mM solutions in DMSO and subsequently diluted. MCF7 or […] cells were seeded into 96 well flat bottom plates at a density of 10000 cells/well (MCF7) or 5000 cells/well (MDA-MB-468) in a volume of 200 μl/well. 24 hours after seeding, 1 μl each of the compound dilutions are added into each well of the 96 well plates. Each compound dilution is tested as at least as duplicates. Wells containing untreated control cells were filled with 200 μl DMEM containing 0.5% v:v DMSO. The cells are then incubated with the substances for 48 hours at 37° C. in a humidified atmosphere containing 5% carbon dioxide. To determine cell viability, 20 μl of a Resazurin solution (Sigma; 90 mg/l) are added. After 4 hours incubation at 37° C. the fluorescence is measured at an extinction of 544 nm and an emission of 590 nm (Wallac Victor2; Perkin Elmer, USA). For the calculation of the cell viability the emission value from untreated cells is set as 100% viability and the emission rates of treated cells are set in relation to the values of untreated cells. Viabilities are expressed as % values. The corresponding IC50 values of the compounds for cytotoxic activity are determined from the concentration-effect curves by means of non-linear regression. The analysis of the data is performed using a biostatistical program (GraphPad Prism, USA).

MDA-MB-468 cells = assay: Cellular proliferation/cytotoxicity assay (Alamar Blue), MDA-MB-468; assay type: cell-based; conditions: Homo sapiens; MDA-MB-468, 48 hours, Alamar Blue (Resazurin); read-out: Anti-proliferative/cytotoxic activity: IC50 MDA468
Protocol: as §1

GST-ΔPH-Akt1 = target: T3, GST-ΔPH-Akt1 (Homo sapiens, UniProt P31749); assay: Biochemical ΔPH Akt1 assay (flashplate, 33P-ATP, histone 2B); conditions: GST-ΔPH-Akt1, histone 2B substrate, 100 nM ATP, 80 minutes at 30° C.; read-out: Akt inhibition: IC50 (inhibition of deltaPHAkt1)
T3 construct: named GST-deltaPH-Akt1; 107480aa; cloned in the pAcG1 vector; made in house; host or cells: SF9 insect cells (pAcG1 vector), co-expressed with PDK1
From the text: For the biochemical assay ΔPHAkt1 was used devoid of its PH domain as a GST fusion protein (named GST-deltaPH-Akt1; 107480aa; cloned in the pAcG1 vector (BD Biosciences Pharmingen)), co-expressed with PDK1 in SF9 insect cells. The protein was purified using glutathion-affinity chromatography by standard protocols.
In order to study the inhibition of Akt according to the invention, a flashplate-based assay has been developed.
The Akt1 assay is a biochemical assay using Akt1 devoid of its PH domain and co-expressed with PDK1 in insect cells. The GST-ΔPH-Akt1 assay is run in 96 well plates by incubating 100 ng/well GST-ΔPH-Akt1, 100 ng/well histone 2B (Roche, #223514) as substrate, 10 μl of compound of invention (test compounds were dissolved as 10 mM solutions in dimethylsulfoxide (DMSO) and subsequently diluted) and 100 nM ATP (including ^33P-ATP) in 100 μl of reaction buffer ([…], pH7.5; 3 mM MgCl2; 3 mM MnCl2; 3 μM Na-Orthovanadat; 1 mM DTT; 1 μg/ml PEG8000) for 80 minutes at 30° C. The reactions are terminated by adding 100 μl stopping buffer (2% H3PO4 for 5 minutes) and are washed 3 times by using washing buffer (0.9% NaCl). Relying on the incorporation of ^33P into the protein substrate histone 2B, the detection is based on the adhesion of the phosphorylated protein to the surface of scintillator-coated flash plates (NEN, USA; #SMP-200). This phosphorylation is measured by counting the plate for 60 sec. using a plate reader (Wallac Microbeta; Perkin Elmer, USA). The analysis of the data is performed using a biostatistical program (GraphPad Prism, USA).

T1 sequence (P31749 whole entry): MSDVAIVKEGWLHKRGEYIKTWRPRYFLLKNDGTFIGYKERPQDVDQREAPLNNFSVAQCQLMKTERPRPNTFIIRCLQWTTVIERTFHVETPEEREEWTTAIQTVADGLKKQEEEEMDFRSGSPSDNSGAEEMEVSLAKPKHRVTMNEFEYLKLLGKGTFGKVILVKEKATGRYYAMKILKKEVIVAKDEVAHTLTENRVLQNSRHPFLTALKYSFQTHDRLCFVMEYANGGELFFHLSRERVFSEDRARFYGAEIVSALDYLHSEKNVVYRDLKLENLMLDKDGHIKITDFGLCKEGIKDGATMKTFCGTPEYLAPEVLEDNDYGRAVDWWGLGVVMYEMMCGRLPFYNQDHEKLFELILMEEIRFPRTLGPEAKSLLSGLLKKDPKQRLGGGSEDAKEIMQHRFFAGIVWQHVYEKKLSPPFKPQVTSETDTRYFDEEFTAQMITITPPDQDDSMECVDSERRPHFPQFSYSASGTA
T2 sequence (P31749 whole entry): as above
T3 sequence (P31749 107-480 limits assumed, stated change not applied): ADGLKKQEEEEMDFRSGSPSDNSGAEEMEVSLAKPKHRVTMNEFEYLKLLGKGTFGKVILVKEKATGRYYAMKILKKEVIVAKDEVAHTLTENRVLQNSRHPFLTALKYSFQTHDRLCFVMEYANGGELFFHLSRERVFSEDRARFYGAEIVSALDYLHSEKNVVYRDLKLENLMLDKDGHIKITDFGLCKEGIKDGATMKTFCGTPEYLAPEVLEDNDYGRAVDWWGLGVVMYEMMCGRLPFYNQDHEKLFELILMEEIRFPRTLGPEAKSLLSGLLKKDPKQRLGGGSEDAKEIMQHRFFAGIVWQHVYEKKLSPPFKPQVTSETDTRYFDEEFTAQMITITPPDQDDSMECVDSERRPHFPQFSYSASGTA

SMILES	IC50 [1] [nM]	IC50 [2] [µM]	IC50 (MCF7 cells) [µM]	melting point [°C]	IC50 (MDA-MB-468 cells) [µM]	IC50 (GST-ΔPH-Akt1) [µM]
NCc1ccc(C(=O)Nc2ccc(Nc3cc(-c4cccc5c4oc4ccccc45)ncn3)cc2)cc1.O=C(O)C(F)(F)F [Compound 49, 4-Aminomethyl-N-[4-(6-dibenzofuran-4-yl-pyrimidin-4-ylamino)-phenyl]-benzamide trifluoroacetate]	≤ 1750	≤ 4.4	≤ 16.6	155 to 165	≤ 6.05	–
NCc1cccc(C(=O)Nc2ccc(Nc3cc(-c4cccc5c4oc4ccccc45)ncn3)cc2)n1 [Compound 73, 6-Aminomethyl-pyridin-2-carbonsäure-[4-(6-dibenzofuran-4-yl-pyrimidin-4-ylamino)-phenyl]-amide]	≤ 1750	–	–	183 to 186	–	–
NCc1ccc(C(=O)Nc2cccc(Nc3cc(-c4cccc5c4oc4ccccc45)ncn3)c2)cc1.O=C(O)C(F)(F)F [Compound 57, 4-Aminomethyl-N-[3-(6-dibenzofuran-4-yl-pyrimidin-4-ylamino)-phenyl]-benzamid trifluoroacetate]	≤ 1750	≤ 4.4	–	114	–	≤ 5
